Results from patent US20130165489A1, “Small Molecule Modulators of HIV-1 Capsid Stability and Methods Thereof” (The Trustees of the University of Pennsylvania, priority 2010, published 2013).
“Also recorded” adds a separate entry of the source.

Key:
producer cells (293T) = format: cell-based, human
Excerpt: Moreover, these compounds appeared to be working at different stages of the viral life-cycle—one at an early post-entry event (CMPD-A) and the other at an assembly or post-integration event in HIV-1 replication (CMPD-D).

[1] = test system: recombinant luciferase-expressing HIV-1 bearing the envelope glycoprotein of the HIV-1YU-2 strain; experiment: Single-round infection assay, HIV-1 with YU-2 envelope on Cf2Th-CCR5 cells; conditions: for activity in the single-round infection assay: Cf2Th-CCR5 cells, YU-2 envelope
[2] = test system: single-round competent HIV-1NL4-3 virus; experiment: Single-round assay, production of infectious virus from compound-treated producer cells
HIV-1NL4-3 CA = HIV-1NL4-3 CA (Human immunodeficiency virus type 1 group M subtype B, UniProt P12493); experiment: Surface plasmon resonance direct binding to HIV-1 CA; conditions: SPR
Method: Interaction analyses were performed on a Biacore 3000 optical biosensor (Biacore, Piscataway Township, NJ) with simultaneous monitoring of two flow cells Immobilization of the CA protein to CM7 sensor chips was performed following the standard amine coupling procedure according to the manufacturer's specifications. Briefly, carboxyl groups on the sensor chip surface were activated by injection of 50 μL of a solution containing 0.2 M EDC (1-ethyl-3-[3-dimethylamino-propyl]carbodiimide hydrochloride) and 0.05 M NHS(N-hydroxysuccinimide) at a flow rate of 5 μL min^−1. Next, the 50 μL of CA protein at a concentration of 6 μM in pH 5.0, 10 mM sodium acetate buffer was passed over the chip surface at 25° C. at a flow rate of 5 μL min^−1 Then, after unreacted protein had been washed out, excess active ester groups on the sensor surface were capped by the injection of 50 μL of 1 M ethanolamine (pH 8.0) at a flow rate of 5 μL min^−1. A reference surface with the nonspecific anti-gp120 antibody 17b (Thali et al., 1993, J. Virol. 67:3978-88) immobilized was generated at the same time under the same conditions and was used as background to correct nonspecific binding and for instrument and buffer artifacts.
Stock solutions of CMPD-E and CMPD-F were prepared by dissolving the compounds in 100% dimethyl sulfoxide (DMSO) to a final concentration of 10 mM. To prepare the sample for analysis, 30 μL of the compound stock solution was added to sample preparation buffer (25 mM Tris-HCl, 150 mM NaCl, pH 7.5) to a final volume of 1 mL and mixed thoroughly. Preparation of analyte in this manner ensured that the concentration of DMSO was matched with that of running buffer with 3% DMSO. Lower concentrations of each compound were then prepared by twofold serial dilutions into running buffer (25 mM Tris-HCl, 150 mM NaCl, 3% DMSO, pH 7.5). These compound dilutions were then injected over the control and CA surfaces at a flow rate of 50 μL min^−1, for a 2-min association phase, followed by a 5-min dissociation phase. […]

West Nile virus (WNV) = experiment: West Nile Virus virus-like particle (VLP) assay on Vero cells; format: cell-based; conditions: 24 hr, firefly luciferase reporter, 2 replicates
Method: (§1) The activity of CMPD-A against a high-priority flaviviral pathogen, West Nile virus (WNV), was evaluated. The compound was tested in a West Nile Virus, virus-like particle (VLP) assay, which is a 24 hr assay on Vero cells using a firefly luciferase reporter to measure viral replication activity. In these tests IC50 values of 30 (±13) μM were obtained, with no toxicity at 100 μM using either both MTT or a renilla luciferase cellular assay (FIG. 16).

DENV3 = experiment: CPE assay, DENV3; format: cell-based; conditions: Dengue virus, DENV3, Vero C1008; Vero E6 cells; 3 replicates
DENV1 = experiment: CPE assay, DENV1; format: cell-based; conditions: Dengue virus, DENV1, Vero C1008; Vero E6 cells; 3 replicates
in vitro = format: cell-based; conditions: hamster
DENV (serotypes 1-4) = experiment: CPE assay, Dengue serotypes 1-4; format: cell-based, Dengue virus; conditions: Dengue virus; Vero cells; read-out: average half-maximal inhibitory concentration over DENV serotypes 1-4
Vero cells [3] = conditions: over the concentration range tested
RSV = experiment: CPE assay, RSV; format: cell-based, respiratory syncytial virus
DENV4 = experiment: CPE assay, DENV4; format: cell-based; conditions: Dengue virus, DENV4, Vero C1008; Vero E6 cells; 3 replicates
DENV2 [4] = experiment: DENV2 focus reduction assay using BHK cells; conditions: Dengue virus, read-out: average IC50, DENV2 focus reduction
Vero cells [5] = format: cell-based; conditions: at 100 μM; MTT or renilla luciferase cellular assay
Method: as §1

HIV-1IIIB = experiment: Anti-HIV efficacy in P4-R5 MAGI cells; format: cell-based
Method: P4-R5 MAGI cells (NIH AIDS Research & Reference Reagent Program, catalog #3580) were maintained in Dulbecco's Modified Eagle's Media (DMEM) supplemented with 10% fetal bovine serum (FBS), sodium bicarbonate (0.05%), antibiotics (penicillin, streptomycin, and kanamycin at 40 μg/mL each), and puromycin (1 μg/mL). Initial studies were performed using the HIV-1-susceptible P4-R5 MAGI reporter cell line. HIV-1 infection of these cells (which express CD4, CXCR4, and CCR5) results in LTR-directed β-galactosidase expression, which can be readily and accurately quantitated. Approximately 18 h prior to the experiment, P4-R5 MAGI cells were plated at a concentration of 1.2×10^4 cells/well in a flat-bottom 96-well plate. On the day of the experiment, cells were infected in quadruplicate with HIV-1 strain IIIB (Advanced Biotechnologies, Inc., Columbia, Md.) in the presence or absence of putative CA inhibitors at the indicated concentrations. After 48 h incubation at 37° C., cells were assayed for infection using the Galacto-Star One-Step β-Galactosidase Reporter Gene Assay System (Applied Biosystems, Bedford, Mass.).

DENV2 [6] = experiment: CPE assay, DENV2; format: cell-based; conditions: Dengue virus, DENV2, Vero C1008; Vero E6 cells; 3 replicates
[7] = Single-round infection assay, infection of U87 CD4-CXCR4 target cells in presence of compound; conditions: Human immunodeficiency virus 1, U87.CD4.CXCR4, read-out: IC50 against HIV-1
[8] = test system: HIV-1 92BR030 (subtype B clinical isolate); experiment: Anti-HIV efficacy in human PBMCs, isolate 92BR030; format: cell-based; conditions: primary PBMCs
Method: HIV human peripheral blood mononuclear cell (PBMC) assays were performed as described previously (Lanier et al., 2010, Antimicrob. Agents Chemother. 54:2901-09; Ptak et al., 2008, Antimicrob. Agents Chemother. 52:1302-17). Briefly, fresh PBMCs, seronegative for HIV and hepatitis B virus (HBV), were isolated from blood samples of the screened donors (Biological Specialty Corporation, Colmar, Pa.) by using lymphocyte separation medium (LSM; density, 1.078±0.002 g/ml; Cellgro; Mediatech, Inc.) by following the manufacturer's instructions. Cells were stimulated by incubation in 4 μg/mL phytohemagglutinin (PHA; Sigma) for 48 to 72 h. Mitogenic stimulation was maintained by the addition of 20 U/mL recombinant human interleukin-2 (rhIL-2; R&D Systems, Inc.) to the culture medium. PHA-stimulated PBMCs from at least two donors were pooled, diluted in fresh medium, and added to 96-well plates at 5×10^4 cells/well. Cells were infected (final multiplicity of infection [MOI] of ≅0.1) in the presence of 9 different concentrations of test compounds (triplicate wells/concentration) and incubated for 7 days. To determine the level of virus inhibition, cell-free supernatant samples were collected for analysis of reverse transcriptase activity (Buckheit Jr., et al., 1991, AIDS Res. Hum. Retroviruses 7:295-302). Following removal of supernatant samples, compound cytotoxicity was measured by the addition of 3-(4,5-dimethylthiazol-2-yl)-5-(3-carboxymethoxyphenyl)-2-(4-sulfophenyl)-2H-tetrazolium (MTS; CellTiter 96 reagent; Promega) by following the manufacturer's instructions.
79:6089-6101; Jagodzinski et al., 2000, J. Clin. Microbiol. 38:1247-49; Michael et al., 1999, J. Clin. Microbiol. 37:2557-63 and Vahey et al., 1999, J. Clin. Microbiol. 37:2533-37); HIV-1 Group M isolate 931N101 (Subtype C, CCR5-tropic) from Dr. Robert Bollinger and the UNAIDS Network for HIV Isolation and Characterization (Gao et al., 1994, AIDS Res. Hum. Retroviruses 10:1359-68); HIV-1 Group M isolate CMUO8 (Subtype E, CXCR4-tropic) from Dr. Kenrad Nelson and the UNAIDS Network for HIV Isolation and Characterization (Gao et al., 1994, AIDS Res. Hum. Retroviruses 10:1359-68); HIV-1 Group M isolate G3 (Subtype G, CCR5-tropic) from Alash'le Abimiku (Abimiku et al., 1994, Aids Res. Hum. Retrovir. 10:1581-83); HIV-1 Group 0 isolate BCF02 (CCR5-tropic) from Sentob Saragosti, Françoise Brun-Vézinet, and François Simon (Loussertajaka et al., 1995, J. Virol. 69:5640-49); and SIV isolate Mac251 from Dr. Ronald Desrosiers (Daniel et al., 1985, Science 228:1201-04).

CANTD = CANTD (Human immunodeficiency virus type 1 group M subtype B, UniProt P12493); conditions: binding to CANTD; read-out: equilibrium dissociation constant (KD); cited from earlier work

Cc1ccc(C(C(=O)NC2CCCCC2)N(Cc2ccccc2Cl)C(=O)c2snc(C(=O)NC3CCCCC3)c2N)o1 (stereo not shown) [CMPD-D, 4-amino-N5-(2-chlorobenzyl)-N3-cyclohexyl-N5-(2-(cyclohexylamino)-1-(5-methylfuran-2-yl)-2-oxoethyl)isothiazole-3,5-dicarboxamide]
LDH release versus untreated cells (producer cells (293T)): Neither CMPD-A nor CMPD-D promoted LDH release
activity in the single-round infection assay [1]: not to have any effect on HIV-1 infection
antiretroviral activity, assembly or post-integration event [2]: significant antiretroviral activity

CC1(C)CC(NC(=O)C(=O)Nc2ccc(Cl)cc2)CC(C)(C)N1 [CMPD-F, N1-(4-chlorophenyl)-N2-(2,2,6,6-tetramethylpiperidin-4-yl)oxalamide, reference compound]
interaction with sensor-chip immobilized HIV-1 CA (HIV-1NL4-3 CA): displayed no such interaction

O=C(O)c1ccc(-c2nc(-c3ccccc3)c(-c3ccc4oc5ccccc5c4c3)[nH]2)cc1 [CMPD-C, 4-(5-(dibenzo[b,d]furan-2-yl)-4-phenyl-1H-imidazol-2-yl)benzoic acid]
activity in the single-round infection assay [1]: retained the activity of the parental molecule

COC(=O)c1ccc(-c2nc(-c3ccc4oc5ccc(-c6nc(-c7ccc(C(=O)OC)cc7)[nH]c6-c6ccccc6)cc5c4c3)c(-c3ccccc3)[nH]2)cc1 [CMPD-B, dimethyl 4,4′-(4,4′-(dibenzo[b,d]furan-2,8-diyl)bis(5-phenyl-1H-imidazole-4,2-diyl))dibenzoate]
activity in the single-round infection assay [1]: lost all activity

O=C(O)c1ccc(-c2nc(-c3ccc4oc5ccc(-c6nc(-c7ccc(C(=O)O)cc7)[nH]c6-c6ccccc6)cc5c4c3)c(-c3ccccc3)[nH]2)cc1 [CMPD-A, 4,4′-(4,4′-(dibenzo[b,d]furan-2,8-diyl)bis(5-phenyl-1H-imidazole-4,2-diyl))dibenzoic acid]
IC50 (West Nile virus (WNV)): 30 µM
IC50 (DENV3): 7.66 µM
IC50 (DENV1): 8.35 µM
CC50 (in vitro): 35 µM
IC50 (DENV (serotypes 1-4)): 4.95 µM
cellular toxicity against the Vero cells (Vero cells [3]): no cellular toxicity
activity against RSV (RSV; CPE assay, up to 100 μM): active against RSV
IC50 (RSV; human respiratory syncytial virus, RSV, Vero cells): 10.2 µM
IC50 (DENV4): 2.37 µM
IC50 (DENV2 [4]): 1.25 µM
toxicity (Vero cells [5]): no toxicity
LDH release versus untreated cells (producer cells (293T)): Neither CMPD-A nor CMPD-D promoted LDH release
IC50 (HIV-1IIIB; Human immunodeficiency virus 1, fully infectious virus, P4-R5 MAGI cell line, read-out: IC50 for replication of HIV-1IIIB): 89 ± 3.2 µM
inhibition of HIV-1IIIB replication (HIV-1IIIB; P4-R5 MAGI cells): retained the ability to inhibit
IC50 (DENV2 [6]): 1.43 µM
IC50 ([1]; Human immunodeficiency virus 1, Cf2Th-CCR5, read-out: IC50 against HIV-1 (single-round infection)): 33.3 ± 0.31 µM
IC50 [7]: 33.6 ± 0.31 µM
inhibition of HIV-1 92BR030 replication in PBMCs [8]: displayed no activity; also recorded: unable to inhibit; also recorded: did not affect replication

Cc1ccc(NC(=O)NCCSCc2ccc(CN(C)C)o2)cc1Cl [CAP-1, N-(3-chloro-4-methylphenyl)-N′-[2-[([5-[(dimethylamino)-methyl]-2-furyl]-methyl)-sulfanyl]ethyl]urea]
Kd (CANTD): ~800 µM
